According to patent US6518306B1, “1,4-substitued 4,4-diaryl cyclohexanes” (SmithKline Beecham Corporation, priority 1999, dated 2003):

Test system: TNF
Assay: Endotoxic shock models, in vivo TNF activity
Conditions: endotoxic shock model; serum TNF after endotoxin injection
Text: Two models of endotoxic shock have been utilized to determine in vivo TNF activity for the compounds of Formula (I) and (II). The protocol used in these models is described in Badger et al., EPO published Application 0 411 754 A2, Feb. 6, 1991, and in Hanna. WO 90/15534, Dec. 27, 1990.

With `COc1ccc(C=O)cc1OC1CCCC1` [Example 1, 3-Cyclopentyloxy-4-methoxybenzaldehyde] the “in vivo response in reducing serum levels of TNF induced by the injection of endotoxin” value was “positive in vivo response”.
